Tested on: healthy subjects
Assay: Toronto Empathy Questionnaire (TEQ)
Type: in vivo, human
Conditions: Day 7
Description: In some embodiments, the Toronto Empathy Questionnaire (TEQ) is utilized to evaluate the safety and/or efficacy of psilocybin. The TEQ represents empathy as a primarily emotional process. […] The TEQ is a brief, reliable and valid instrument for the assessment of empathy. In some embodiments, after treating according to the methods of the disclosure, a subject's TEQ score increases by about 5%, about 10%, about 15%, about 20%, about 25%, about 30%, about 35%, about 40%, about 45%, about 50%, about 55%, about 60%, about 65%, about 70%, about 75%, about 80%, about 85%, about 90%, about 95%, or about 100%, about 110%, about 120%, about 130%, about 140%, about 150%, about 160%, about 170%, about 180%, about 190%, about 200%, about 210%, about 220%, about 230%, about 240%, about 250%, about 260%, about 270%, about 280%, about 290%, or about 300%, or more, compared to prior to treatment.
The Pictorial Empathy Test (PET), Reading the Mind in the Eyes Test (RMET), Scale of Social Responsibility (SSR), Social Value Orientation (SVO), and Toronto Empathy Questionnaire (TEQ) were performed. Table 20 summarizes the results of the mixed model for repeated measures (MMRM) analysis for each of the aforementioned social cognition panel scales measured on Day 7 and Day 84 after study drug administration.

CN(C)CCc1c[nH]c2cccc(OP(=O)(O)O)c12 [Psilocybin, psilocybin]
TEQ change from baseline (LS mean) (psilocybin 10 mg): −0.1
TEQ change from baseline, LS mean difference (psilocybin 10 mg - placebo): 0.1
TEQ change from baseline (LS mean) (psilocybin 25 mg): 0.0
TEQ change from baseline, LS mean difference (psilocybin 25 mg - 10 mg): 0.1
TEQ change from baseline, LS mean difference (psilocybin 25 mg - placebo): 0.2
